Experimental data from patent publication US7745442B2, “Methods of reducing risk of infection from pathogens” (priority 2003, dated 2010).

Molecular target: T1, airway epithelial sodium currents (sodium channel) in canine bronchial epithelia (Canis lupus familiaris, UniProt A0A8I3MKE6+A0A8I3Q679+Q95165)
T1 construct: endogenous in cells; host or cells: primary canine bronchial epithelial cells from freshly excised airways, cultured at air-liquid interface on Snapwell inserts
Test: In vitro sodium channel blocking activity (short circuit current, Ussing chambers) in canine bronchial epithelia
Assay type: cell-based
Details: potency in canine bronchial epithelia; for Fold Amiloride*: relative to amiloride (Formula III compounds), value ± spread
Experimental: One assay used to assess mechanism of action and/or potency of the compounds of (1), (II), and (HI) involves the determination of lumenal drug inhibition of airway epithelial sodium currents measured under short circuit current (ISC) using airway epithelial monolayers mounted in Ussing chambers. Cells obtained from freshly excised human, dog, sheep or rodent airways are seeded onto porous 0.4 micron Snapwell™ Inserts (CoStar), cultured at air-liquid interface (ALI) conditions in hormonally defined media, and assayed for sodium transport activity (ISC) while bathed in Krebs Bicarbonate Ringer (KBR) in Using chambers. All test drug additions are to the lumenal bath with half-log dose addition protocols (from 1×10^−11 M to 3×10^−5 M), and the cumulative change in ISC (inhibition) recorded. All drugs are prepared in dimethyl sulfoxide as stock solutions at a concentration of 1×10^−2 M and stored at −20° C. Eight preparations are typically run in parallel; two preparations per run incorporate amiloride and/or benzamil as positive controls. After the maximal concentration (5×10^−5 M) is administered, the lumenal bath is exchanged three times with fresh drug-free KBR solution, and the resultant ISC measured after each wash for approximately 5 minutes in duration. Reversibility is defined as the percent return to the baseline value for sodium current after the third wash. All data from the voltage clamps are collected via a computer interface and analyzed off-line.
Dose-effect relationships for all compounds are considered and analyzed by the Prism 3.0 program. IC50 values, maximal effective concentrations, and reversibility are calculated and compared to amiloride and benzamil as positive controls.
Amiloride and/or a compound 33 was also tested in this assay as a positive control. The results for the compounds of the present invention are reported as fold-enhancement values relative to amiloride.
Amiloride was also tested in this assay as a positive control. The results for the compounds of the present invention are reported as fold-enhancement values relative to amiloride.

T1 sequence (A0A8I3Q679 entry or part of it): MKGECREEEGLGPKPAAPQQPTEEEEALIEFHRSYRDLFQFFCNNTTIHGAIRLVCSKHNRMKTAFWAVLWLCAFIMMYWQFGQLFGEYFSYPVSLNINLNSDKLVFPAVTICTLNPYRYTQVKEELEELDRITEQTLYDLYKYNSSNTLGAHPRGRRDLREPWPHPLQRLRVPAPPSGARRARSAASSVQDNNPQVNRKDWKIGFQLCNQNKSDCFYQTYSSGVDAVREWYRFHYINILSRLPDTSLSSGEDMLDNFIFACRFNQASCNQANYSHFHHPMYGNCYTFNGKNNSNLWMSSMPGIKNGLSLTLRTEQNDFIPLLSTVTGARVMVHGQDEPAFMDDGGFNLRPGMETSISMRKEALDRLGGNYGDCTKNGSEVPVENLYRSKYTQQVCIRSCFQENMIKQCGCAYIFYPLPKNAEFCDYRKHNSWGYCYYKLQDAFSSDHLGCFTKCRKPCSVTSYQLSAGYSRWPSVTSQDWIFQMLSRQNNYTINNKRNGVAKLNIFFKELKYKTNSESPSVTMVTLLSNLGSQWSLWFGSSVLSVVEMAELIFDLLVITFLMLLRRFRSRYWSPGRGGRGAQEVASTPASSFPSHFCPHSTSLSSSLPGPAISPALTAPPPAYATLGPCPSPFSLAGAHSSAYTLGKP
T1 sequence (A0A8I3MKE6 entry or part of it): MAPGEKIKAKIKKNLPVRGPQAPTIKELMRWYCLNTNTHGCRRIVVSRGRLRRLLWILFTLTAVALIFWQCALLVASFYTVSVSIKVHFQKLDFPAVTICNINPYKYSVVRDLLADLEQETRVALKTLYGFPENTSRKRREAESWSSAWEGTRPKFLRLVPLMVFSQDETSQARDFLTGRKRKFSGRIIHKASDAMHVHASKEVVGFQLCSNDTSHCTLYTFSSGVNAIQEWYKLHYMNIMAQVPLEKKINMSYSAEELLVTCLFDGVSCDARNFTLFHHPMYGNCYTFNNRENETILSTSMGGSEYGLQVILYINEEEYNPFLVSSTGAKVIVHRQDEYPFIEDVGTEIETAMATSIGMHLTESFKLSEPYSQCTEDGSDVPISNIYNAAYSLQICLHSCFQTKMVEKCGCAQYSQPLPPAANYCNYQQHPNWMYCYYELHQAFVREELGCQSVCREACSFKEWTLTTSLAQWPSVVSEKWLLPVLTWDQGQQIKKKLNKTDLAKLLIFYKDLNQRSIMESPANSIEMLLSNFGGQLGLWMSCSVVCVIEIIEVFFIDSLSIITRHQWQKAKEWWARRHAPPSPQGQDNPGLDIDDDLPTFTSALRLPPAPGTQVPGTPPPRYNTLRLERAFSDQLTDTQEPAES
T1 sequence (Q95165 whole entry): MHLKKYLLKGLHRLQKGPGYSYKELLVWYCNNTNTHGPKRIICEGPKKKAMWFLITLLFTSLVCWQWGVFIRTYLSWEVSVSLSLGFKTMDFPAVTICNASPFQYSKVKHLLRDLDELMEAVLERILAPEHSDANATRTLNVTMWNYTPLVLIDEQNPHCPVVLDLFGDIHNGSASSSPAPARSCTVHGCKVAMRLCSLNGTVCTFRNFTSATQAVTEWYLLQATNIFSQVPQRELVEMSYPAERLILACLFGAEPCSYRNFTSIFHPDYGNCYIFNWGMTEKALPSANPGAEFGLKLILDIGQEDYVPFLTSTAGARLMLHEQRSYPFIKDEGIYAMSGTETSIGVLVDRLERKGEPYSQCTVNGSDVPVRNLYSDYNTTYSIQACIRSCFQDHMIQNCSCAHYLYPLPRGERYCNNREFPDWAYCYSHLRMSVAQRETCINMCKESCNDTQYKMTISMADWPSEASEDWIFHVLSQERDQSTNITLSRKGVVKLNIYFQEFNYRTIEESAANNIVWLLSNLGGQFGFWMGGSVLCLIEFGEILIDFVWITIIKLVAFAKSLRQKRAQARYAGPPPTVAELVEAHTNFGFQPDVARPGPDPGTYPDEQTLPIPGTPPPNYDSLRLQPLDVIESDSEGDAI

With `Cl.N=C(NCCCCc1ccc(OCC(O)CO)cc1)NC(=O)c1nc(Cl)c(N)nc1N` (centres unmarked) [compound 33, 4-[4-(2,3-Dihydroxypropyloxyl)phenyl]butylamidino-3,5-diamino-6-chloropyrazinecarboxamide hydrochloride] the “Fold Amiloride*” value (number in brackets not explained (presumably n), listed as drawing 52: O CH2 CHOH CH2 OH, hydrochloride) was 51.95 (50) fold, the “Fold Amiloride*” value (number in brackets not explained (presumably n), listed as drawing 53: O CH2 CHOH CH2 OH, hydrochloride) was 51.95 (79) fold and the “Fold Amiloride*” value (number in brackets not explained, Position=Para, hydrochloride) was 51.55 (79) fold.
With `Cl.Cl.N=C(N)NCCOc1ccc(CCCCNC(=N)NC(=O)c2nc(Cl)c(N)nc2N)cc1` [compound 9518, N-(3,5-diamino-6-chloropyrazine-2-carbonyl)-N′-{4-[4-(2-guanidinoethoxy)-phenyl]butyl}guanidine dihydrochloride] the “Fold Amiloride*” value (number in brackets not explained) was 120.6 ± 60.8 (11) fold.
With `Cl.N=C(NCCCCc1ccc(O)cc1)NC(=O)c1nc(Cl)c(N)nc1N` [compound V, 4-(4-hydroxyphenyl)butylamidino-3,5-diamino-6-chloropyrazinecarboxamide hydrochloride] the “Fold Enhancement Over Amiloride” value (relative to amiloride (Formula I compounds, Tables 1-4)) was 50.3 fold.
